US20240197888A1, “SOS1 PROTEIN DEGRADERS, PHARMACEUTICAL COMPOSITIONS THEREOF, AND THEIR THERAPEUTIC APPLICATIONS” (BioTheryX, Inc., priority 2021, published 2024)

Assays:
Assay type in all cases: cell-based
Lovo (G13D) cells = experiment: Cell viability assay (CELLTITER-GLO), Lovo cells; details: Homo sapiens, 72 h, Inhibition of cancerous cells, 3 days incubation, luminescence
Method in brief: (§1)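 Cells plated in medium with 2.5% FBS and exposed to compound (DMSO control) for 3 days at 37° C., 5% CO2. Viability read as luminescence after CellTiter-Glo addition and 10 min shaking; IC50 values derived.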

SW480 (G12V) cells = experiment: Cell viability assay (CELLTITER-GLO), SW480 cells; details: Homo sapiens, 72 h, Inhibition of cancerous cells, 3 days incubation, luminescence
Method in brief: as §1

SW48 (wt) cells = experiment: Cell viability assay (CELLTITER-GLO), SW48 cells; details: Homo sapiens, 72 h, Inhibition of cancerous cells, 3 days incubation, luminescence
Method in brief: as §1

H358 (G12C) cells = experiment: Cell viability assay (CELLTITER-GLO), H358 cells; details: Homo sapiens, NCI-H358, 72 h, Inhibition of cancerous cells, 3 days incubation, luminescence
Method in brief: as §1

SOS1 = molecular target: T1, SOS1 (Homo sapiens, UniProt Q07889); experiment: Protein degradation assay (western blot) in MV-4-11 cells; details: 6 h; for Degradation 3 μM (SOS1 protein, % degradation relative to DMSO control): compound at 3 μM; for Degradation 10 μM (SOS1 protein, % degradation relative to DMSO control): compound at 10 μM
T1 construct: Whole cell extracts were prepared using an immunoprecipitation (IP) lysis buffer; endogenous in cells; host or cells: MV-4-11
T1 sequence (Q07889 1-1333): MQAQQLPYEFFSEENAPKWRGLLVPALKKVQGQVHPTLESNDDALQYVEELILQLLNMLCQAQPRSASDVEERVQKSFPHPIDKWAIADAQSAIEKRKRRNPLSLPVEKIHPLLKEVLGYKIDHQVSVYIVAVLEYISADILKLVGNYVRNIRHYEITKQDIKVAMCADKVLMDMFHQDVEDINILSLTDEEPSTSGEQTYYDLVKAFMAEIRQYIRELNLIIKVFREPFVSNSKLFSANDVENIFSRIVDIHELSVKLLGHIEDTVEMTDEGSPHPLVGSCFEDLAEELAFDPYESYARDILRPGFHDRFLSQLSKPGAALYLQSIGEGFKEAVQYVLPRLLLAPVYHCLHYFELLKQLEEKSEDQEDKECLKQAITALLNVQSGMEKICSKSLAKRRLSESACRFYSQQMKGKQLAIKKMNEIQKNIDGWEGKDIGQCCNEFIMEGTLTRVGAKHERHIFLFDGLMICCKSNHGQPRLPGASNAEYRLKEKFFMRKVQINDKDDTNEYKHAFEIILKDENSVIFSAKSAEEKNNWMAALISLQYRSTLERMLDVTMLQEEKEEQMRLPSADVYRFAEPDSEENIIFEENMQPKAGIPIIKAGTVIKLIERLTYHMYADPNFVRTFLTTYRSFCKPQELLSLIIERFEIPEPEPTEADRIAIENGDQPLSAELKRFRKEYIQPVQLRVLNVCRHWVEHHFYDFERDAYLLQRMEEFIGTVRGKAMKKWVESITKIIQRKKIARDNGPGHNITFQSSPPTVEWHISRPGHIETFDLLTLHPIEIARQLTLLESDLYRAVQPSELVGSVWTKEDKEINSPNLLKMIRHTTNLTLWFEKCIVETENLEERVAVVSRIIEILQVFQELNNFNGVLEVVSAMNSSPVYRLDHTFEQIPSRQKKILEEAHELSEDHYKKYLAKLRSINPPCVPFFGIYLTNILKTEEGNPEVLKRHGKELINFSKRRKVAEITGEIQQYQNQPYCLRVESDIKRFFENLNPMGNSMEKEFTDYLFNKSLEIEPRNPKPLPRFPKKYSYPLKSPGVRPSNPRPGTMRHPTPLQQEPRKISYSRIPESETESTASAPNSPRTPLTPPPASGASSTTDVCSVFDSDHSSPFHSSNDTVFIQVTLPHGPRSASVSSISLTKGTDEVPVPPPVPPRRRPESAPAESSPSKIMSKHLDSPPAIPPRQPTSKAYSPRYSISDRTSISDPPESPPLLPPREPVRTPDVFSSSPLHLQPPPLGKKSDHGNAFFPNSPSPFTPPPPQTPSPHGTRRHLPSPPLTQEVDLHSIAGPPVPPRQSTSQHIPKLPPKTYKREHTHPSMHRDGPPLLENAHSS
Description: MV-4-11 cells were grown in RPMI 1640 media supplemented with 10% fetal bovine serum, streptomycin, and penicillin. The cells were plated in 24-well plates in the growth media. The cells were then treated with a compound at indicated concentrations for 6 h. Whole cell extracts were prepared using an immunoprecipitation (IP) lysis buffer. Briefly, the cells were washed once in PBS, and the cell pellets were resuspended in the IP lysis buffer and incubated for 15 min on ice. Cell debris was removed by centrifugation and the cleared whole cell lysates were transferred to new tubes for further analysis.
For a western blot analysis, the whole cell protein extracts were separated on 4-12% SDS-polyacrylamide gels, transferred to nitrocellulose, and probed with primary antibodies. The nitrocellulose was subsequently washed and probed with IRDYE® secondary antibodies. The signals were detected using an ODYSSEY® Imaging System. The antibodies used in the assay included anti-SOS1; anti-KRAS; β-actin mouse monoclonal antibody; IRDYE® 680RD goat anti-rabbit antibody; and IRDYE® 800CW goat anti-mouse antibody.
[…] The % degradation values relative to the DMSO control are reported as “A,” “B,” “C,” or “D;” where “A” represents a percentage degradation value of no less than 50%; “B” represents a percentage degradation value of less than 50% and no less than 25%; “C” represents a percentage degradation value of less than 25% and no less than 10%; and “D” represents a percentage degradation value of less than 10%.

Structure (SMILES) | IC50 (Lovo (G13D) cells) [µM] | IC50 (SW480 (G12V) cells) [µM] | IC50 (SW48 (wt) cells) [µM] | IC50 (H358 (G12C) cells) [µM] | Degradation 3 μM (SOS1 protein, % degradation relative to DMSO control) (SOS1) | Degradation 10 μM (SOS1 protein, % degradation relative to DMSO control) (SOS1)
COc1cc2c(N[C@H](C)c3cccc(Br)c3)nc(C)nc2cc1OCCCCCCCN1CCCCC1 [Compound A1, (R)—N-(1-(3-bromophenyl)ethyl)-6-methoxy-2-methyl-7-((7-(piperidin-1-yl)heptyl)oxy)quinazolin-4-amine] | 0.63 | 0.52 | 0.68 | 1.1 | B (a percentage degradation value of less than 50% and no less than 25%) | A (a percentage degradation value of no less than 50%)
CNCc1ccccc1-c1csc([C@@H](C)Nc2nc(CCCCCCCCN3CCCCC3)nc3cc(OC)c(OC)cc23)c1 [Compound C1, (R)-6,7-Dimethoxy-N-(1-(4-(2-((methylamino)methyl)phenyl)thiophen-2-yl)ethyl)-2-(8-(piperidin-1-yl)octyl)quinazolin-4-amine] |  |  |  |  | D (a percentage degradation value of less than 10%) | D (a percentage degradation value of less than 10%)
